Assay results from article PMC10145285, “Diverse Biological Activity of Benzofuroxan/Sterically Hindered Phenols Hybrids” (Pharmaceuticals, 2023).
Converted amounts (≈) assume the structure as drawn. Like-named read-outs stand apart in the source and are kept apart here.

Assays:
[1] = test system: MRSA-2; test: Antimicrobial serial microdilution, MRSA-2; type: cell-based, Staphylococcus aureus
[2] = test system: MRSA-1; test: Antimicrobial serial microdilution, MRSA-1; type: cell-based, Staphylococcus aureus
[3] = test system: M-HeLa
[4] = test system: PANC-1; test: cells; details: Homo sapiens, PANC-1, 48 h, read-out: IC50, PANC-1
[5] = test system: A549; test: cells; details: Homo sapiens, A549, 48 h, read-out: IC50, A549
[6] = test system: WI38; test: cells; type: cell-based; details: Homo sapiens, WI-38, 48 h, read-out: IC50, WI38
[7] = test system: PC3; test: cells; type: cell-based; details: Homo sapiens, PC-3, 48 h, read-out: IC50, PC3
[8] = test system: Bacillus cereus ATCC 10702 (Bc); test: Antimicrobial serial microdilution, Bc; type: cell-based
[9] = test system: HuTu 80, MCF-7 and human cervical carcinoma cell lines; test: cells; type: cell-based; details: 120 h, read-out: IC50 range over HuTu 80, MCF-7 and human cervical carcinoma lines
[10] = test system: Chang Liver; test: cells; details: Homo sapiens, 48 h, read-out: IC50, Chang Liver
[11] = test system: MCF-7; test: cells; type: cell-based, human; details: for IC50: Homo sapiens, MCF7, 48 h, read-out: IC50, MCF-7
[12] = test system: M-HeLa cells; test: Intracellular ROS, CellROX Deep Red flow cytometry; type: cell-based, human; details: concentration equal to IC50 cytotoxicity on M-HeLa, 48 h; result in words
Excerpt: Apoptosis can be induced in various ways, including an increase in the production of reactive oxygen species (ROS) in the cell, with subsequent oxidative stress and destruction of membrane lipids, proteins and nucleic acids. Thus, chemical compounds that disturb the redox balance and lead to the production and accumulation of ROS are potential agents for targeting the transformed cells. To understand the possible synergy between the different components of these hybrid agents, we compared the ROS production for compounds 4c, 5d, starting phenols 2c, 2d and furoxan 3 at the concentration of IC50 cytotoxicity on M-HeLa cells (Figure 4). A significant increase in CellROX® Deep Red fluorescence intensity indicates an increase in ROS production.
Detection of Intracellular ROS. […] ROS generation was investigated using flow cytometry assay and CellROX® Deep Red flow cytometry kit. For this M-HeLa cells were harvested at 2000 rpm for 5 min and then washed twice with ice-cold PBS, followed by resuspension in 0.1 mL of medium without FBS, to which was added 0.2 μL of CellROX® Deep Red and incubated at 37 °C for 30 min. After three times washing the cells and suspending them in PBS, the production of ROS in the cells was immediately monitored using flow cytometer (Guava easy Cyte, Merck, Rahway, NJ, USA).

[13] = test system: HuTu 80; test: cells; details: Homo sapiens, HuTu80, 48 h, read-out: IC50, HuTu 80
[14] = test system: T98G; test: cells; type: cell-based; details: Homo sapiens, 48 h, read-out: IC50, T98G
[15] = test system: Enterococcus faecalis ATCC 29212 (Ef); test: Antimicrobial serial microdilution, Ef; type: cell-based
[16] = test system: Staphylococcus aureus ATCC 6538P FDA 209P (Sa); test: Antimicrobial serial microdilution, Sa; type: cell-based
[17] = test system: A375; test: cells; type: cell-based; details: Homo sapiens, A-375, 48 h, read-out: IC50, A375
[18] = test system: M-HeLa; test: cells; details: Homo sapiens, 48 h, read-out: IC50, M-HeLa
[19] = 500 ng/mL spike, sampled 5, 15, 30 min, 1 and 2 hours; result in words

SMILES: CC(C)OP(=O)(OC(C)C)C(c1cc(C(C)(C)C)c(O)c(C(C)(C)C)c1)c1ccc(Nc2c([N+](=O)[O-])cc([N+](=O)[O-])c3no[n+]([O-])c23)nc1N (stereo not shown) [4c, 7-((6-amino-5-((3,5-di-tert-butyl-4-hydroxyphenyl)(diisopropoxyphosphoryl)methyl)pyridin-2-yl)amino)-4,6-dinitrobenzo[c][1,2,5]oxadiazole 1-oxide]
- Minimum Inhibitory Concentration (MIC), MRSA-2 ([1]; serial microdilution, strain resistant only to β-lactams): -
- Minimum Inhibitory Concentration (MIC), MRSA-1 ([2]; serial microdilution, strain resistant to β-lactams and fluoroquinolones): -
- Times more active than the starting SHP, M-HeLa [3]: 40 times
- IC50 [4]: 11.2 ± 0.9 µM
- IC50 [5]: 0.9 ± 0.08 µM
- IC50 [6]: 2 ± 0.1 µM
- IC50 [7]: 1.2 ± 1 µM
- Minimum Inhibitory Concentration (MIC), Bc [8]: -
- IC50 [9]: 0.9 to 5.9 µM
- IC50 [10]: 2.1 ± 0.7 µM
- Times more active than the starting SHP, MCF-7 [11]: 20 times
- IC50 [11]: 1100 ± 100 nM
- ROS production (CellROX Deep Red fluorescence intensity) [12]: ROS production significantly exceeds that for the original phenol 2c and furoxan 3
- IC50 [13]: 0.9 ± 0.07 µM
- IC50 [14]: 2.2 ± 0.1 µM
- Minimum Inhibitory Concentration (MIC), Ef [15]: -
- Minimum Inhibitory Concentration (MIC), Sa [16]: -
- IC50 [17]: 2.9 ± 0.2 µM
- IC50 [18]: 900 ± 70 nM

SMILES: COP(=O)(OC)C(c1cc(C(C)(C)C)c(O)c(C(C)(C)C)c1)c1ccc(Nc2c([N+](=O)[O-])cc([N+](=O)[O-])c3no[n+]([O-])c23)nc1N (stereo not shown) [4a, 7-((6-amino-5-((3,5-di-tert-butyl-4-hydroxyphenyl)(dimethoxyphosphoryl)methyl)pyridin-2-yl)amino)-4,6-dinitrobenzo[c][1,2,5]oxadiazole 1-oxide]
- Minimum Inhibitory Concentration (MIC), MRSA-2 [1]: -
- Minimum Inhibitory Concentration (MIC), MRSA-1 [2]: -
- IC50 [4]: 20 ± 1.7 µM
- IC50 [5]: 13.5 ± 1.2 µM
- IC50 [6]: 7.2 ± 0.6 µM
- IC50 [7]: 14 ± 1.2 µM
- Minimum Inhibitory Concentration (MIC), Bc [8]: -
- IC50 [10]: 12 ± 1.2 µM
- IC50 [11]: 7600 ± 600 nM
- IC50 [13]: 5.2 ± 0.4 µM
- IC50 [14]: 12.4 ± 1.2 µM
- Minimum Inhibitory Concentration (MIC), Ef [15]: -
- Minimum Inhibitory Concentration (MIC), Sa [16]: -
- IC50 [17]: 13.5 ± 1.2 µM
- IC50 [18]: 4200 ± 300 nM

SMILES: CC(C)(C)c1cc(C(c2ccc(Nc3c([N+](=O)[O-])cc([N+](=O)[O-])c4no[n+]([O-])c34)nc2Nc2c([N+](=O)[O-])cc([N+](=O)[O-])c3no[n+]([O-])c23)P(=O)(Oc2ccccc2)Oc2ccccc2)cc(C(C)(C)C)c1O (stereo not shown) [5d, 7,7’-((3-((3,5-di-tert-butyl-4-hydroxyphenyl)(diphenoxyphosphoryl)methyl)pyridine-2,6-diyl)bis(azanediyl))bis(4,6-dinitrobenzo[c][1,2,5]oxadiazole 1-oxide)]
- MIC ([1]; Staphylococcus aureus, MRSA, read-out: Minimum Inhibitory Concentration (MIC), MRSA-2): 250 ± 19 µg/mL (≈ 248 µM)
- MBC ([1]; Staphylococcus aureus, MRSA, read-out: Minimum bactericidal and fungicidal concentrations (MBC), (MFC), MRSA-2): 250 ± 19 µg/mL (≈ 248 µM)
- Biostability in whole mice blood (peak area relative to 5 min value) [19]: metabolized, but its rate is quite low
- MIC ([2]; Staphylococcus aureus, MRSA, read-out: Minimum Inhibitory Concentration (MIC), MRSA-1): 62.5 ± 5.3 µg/mL (≈ 62 µM)
- MBC ([2]; Staphylococcus aureus, MRSA, read-out: Minimum bactericidal and fungicidal concentrations (MBC), (MFC), MRSA-1): 250 ± 20 µg/mL (≈ 248 µM)
- Times more active than the starting SHP, M-HeLa [3]: 3.7 times
- IC50 [4]: 2.8 µM
- IC50 [5]: 5.2 ± 0.4 µM
- IC50 [6]: 8.4 ± 0.7 µM
- IC50 [7]: 5.9 ± 0.4 µM
- Minimum bactericidal and fungicidal concentrations (MBC), (MFC), Bc [8]: -
- MIC ([8]; Bacillus cereus, ATCC10702, read-out: Minimum Inhibitory Concentration (MIC), Bc): 62.5 ± 5.4 µg/mL (≈ 62 µM)
- IC50 [9]: 0.9 to 5.9 µM
- IC50 [10]: 9.2 ± 1.9 µM
- Times more active than the starting SHP, MCF-7 [11]: 7.6 times
- IC50 [11]: 2100 nM
- IC50 [13]: 4.9 ± 0.3 µM
- IC50 [14]: 4.8 ± 0.4 µM
- Minimum bactericidal and fungicidal concentrations (MBC), (MFC), Ef [15]: -
- MIC ([15]; Enterococcus faecalis, ATCC29212, read-out: Minimum Inhibitory Concentration (MIC), Ef): 62.5 ± 5.2 µg/mL (≈ 62 µM)
- MIC ([16]; Staphylococcus aureus, read-out: Minimum Inhibitory Concentration (MIC), Sa): 15.6 ± 1.2 µg/mL (≈ 15.5 µM)
- MBC ([16]; Staphylococcus aureus, read-out: Minimum bactericidal and fungicidal concentrations (MBC), (MFC), Sa): 125 ± 10 µg/mL (≈ 124 µM)
- IC50 [17]: 5.9 ± 0.5 µM
- IC50 [18]: 2000 nM
